Patent US10017550B2, “Mycobacterium tuberculosis porins and toxins and related methods” (priority 2011, dated 2018)
Converted amounts (≈) assume the structure as drawn.

B1: N-terminal domain of MtpA: N-terminal domain (aa 1-444) of MtpA (Rv3903c), HA- and His-tagged, expressed in and purified from M. smegmatis (protein, UniProt O05442 1-444, looked up, fragment)
chain: MAPLAVDPAALDSAGGAVVAAGAGLGAVISSLTAALAGCAGMAGDDPAGAVFGRSYDGSAAALVQAMSVARNGLCNLGDGVRMSAHNYSLAEAMSDVAGRAAPLPAPPPSGCVGVGAPPSAVGGGGGAPKGWGWVAPYIGMIWPNGDSTKLRAAAVAWRSAGTQFALTEIQSTAGPMGVIRAQQLPEAGLIESAFADAYASTTAVVGQCHQLAAQLDAYAARIDAVHAAVLDLLARICDPLTGIKEVWEFLTDQDEDEIQRIAHDIAVVVDQFSGEVDALAAEITAVVSHAEAVITAMADHAGKQWDRFLHSNPVGVVIDGTGQQLKGFGEEAFGMAKDSWDLGPLRASIDPFGWYRSWEEMLTGMAPLAGLGGENAPGVVESWKQFGKSLIHWDEWTTNPNEALGKTVFDAATLALPGGPLSKLGSKGRDILAGVRGLKERLE
modifications: HA and His tags
notes: N-terminal domain (aa 1-444) of MtpA (Rv3903c), HA- and His-tagged, expressed in and purified from M. smegmatis
B2: N-terminal domain of MtpA (aa 49-444): truncated N-terminal domain of MtpA, codon optimized, Strep-, HA- and His-tagged, purified from E. coli (protein, UniProt O05442 49-444, looked up, fragment)
chain: GAVFGRSYDGSAAALVQAMSVARNGLCNLGDGVRMSAHNYSLAEAMSDVAGRAAPLPAPPPSGCVGVGAPPSAVGGGGGAPKGWGWVAPYIGMIWPNGDSTKLRAAAVAWRSAGTQFALTEIQSTAGPMGVIRAQQLPEAGLIESAFADAYASTTAVVGQCHQLAAQLDAYAARIDAVHAAVLDLLARICDPLTGIKEVWEFLTDQDEDEIQRIAHDIAVVVDQFSGEVDALAAEITAVVSHAEAVITAMADHAGKQWDRFLHSNPVGVVIDGTGQQLKGFGEEAFGMAKDSWDLGPLRASIDPFGWYRSWEEMLTGMAPLAGLGGENAPGVVESWKQFGKSLIHWDEWTTNPNEALGKTVFDAATLALPGGPLSKLGSKGRDILAGVRGLKERLE
modifications: Strep, HA and His tags
notes: truncated N-terminal domain of MtpA, codon optimized, Strep-, HA- and His-tagged, purified from E. coli

What was measured:
M. Bovis BCG Wild-type = assay: microbe, parasite or virus in culture; assay type: cell-based; conditions: Mycobacterium tuberculosis variant bovis BCG
M. Bovis BCG ΔMtpA = assay type: cell-based; conditions: for Resistance factor: ratio MICΔMtpA/MICwt
[1] = system: M. Bovis BCG ΔMtpA + MspA; assay type: cell-based
[2] = system: M. Bovis BCG ΔMtpA + MtpA; assay type: cell-based
[3] = system: wild-type M. bovis BCG in human monocyte-derived macrophages (HMDM); assay type: cell-based
[4] = system: ΔMtpA mutant of M. bovis BCG in human monocyte-derived macrophages (HMDM); assay type: cell-based
[5] = Channel activity analysis, planar lipid bilayer single channel recording; assay type: biochemical

| Molecule | MIC (M. Bovis BCG Wild-type; wild-type strain) | MIC for M. Bovis BCG ΔMtpA (M. Bovis BCG ΔMtpA) | Resistance factor (M. Bovis BCG ΔMtpA) | MIC for M. Bovis BCG ΔMtpA + MspA [1] | MIC for M. Bovis BCG ΔMtpA + MtpA [2] | other results |
| --- | --- | --- | --- | --- | --- | --- |
| CC1(C)S[C@@H]2[C@H](NC(=O)[C@H](N)c3ccccc3)C(=O)N2[C@H]1C(=O)O [Ampicillin] | 30 µg/mL (≈ 85.9 µM) | 960 µg/mL | 32 | 60 µg/mL | 60 µg/mL | increased minimal inhibitory concentration (MIC) / resistance in the ΔMtpA strain (M. Bovis BCG ΔMtpA): 32 fold |
| O=C(N[C@H](CO)[C@H](O)c1ccc([N+](=O)[O-])cc1)C(Cl)Cl [Chloramphenicol] | 4 µg/mL (≈ 12.4 µM) | 64 µg/mL | 16 | 8 µg/mL | 8 µg/mL | increased minimal inhibitory concentration (MIC) / resistance in the ΔMtpA strain (M. Bovis BCG ΔMtpA): 16 fold |
| O=C(O)c1cn(C2CC2)c2cc(N3CCNCC3)c(F)cc2c1=O [Ciprofloxacin] | – | – | – | 2 µg/mL | 2 µg/mL | MIC (M. Bovis BCG Wild-type): 1 µg/mL (≈ 3.02 µM) |
| CC[C@H]1OC(=O)[C@H](C)[C@@H](O[C@H]2C[C@@](C)(OC)[C@@H](O)[C@H](C)O2)[C@H](C)[C@@H](O[C@@H]2O[C@H](C)C[C@H](N(C)C)[C@H]2O)[C@](C)(OC)C[C@@H](C)C(=O)[C@H](C)[C@@H](O)[C@]1(C)O [Clarithromycin] | 0.125 µg/mL (≈ 0.167 µM) | >2 µg/mL | >16 | 0.5 µg/mL | 0.25 µg/mL | – |
| CC[C@H]1OC(=O)[C@H](C)[C@@H](O[C@H]2C[C@@](C)(OC)[C@@H](O)[C@H](C)O2)[C@H](C)[C@@H](O[C@@H]2O[C@H](C)C[C@H](N(C)C)[C@H]2O)[C@](C)(O)C[C@@H](C)C(=O)[C@H](C)[C@@H](O)[C@]1(C)O [Erythromycin A] | 16 µg/mL (≈ 21.8 µM) | – | >16 | 32 µg/mL | 16 µg/mL | – |
| CC[C@@H](CO)NCCN[C@@H](CC)CO [Ethambutol] | 0.125 µg/mL (≈ 0.612 µM) | >1 µg/mL | >8 | 0.125 µg/mL | 0.125 µg/mL | change of resistance / MIC in the ΔMtpA mutant, in words (M. Bovis BCG ΔMtpA): more than eight-fold |
| NNC(=O)c1ccncc1 [Isoniazid] | 0.25 µg/mL (≈ 1.82 µM) | >1 µg/mL | >4 | 0.25 µg/mL | – | change of resistance / MIC in the ΔMtpA mutant, in words (M. Bovis BCG ΔMtpA): more than eight-fold |
| C[C@H]1COc2c(N3CCN(C)CC3)c(F)cc3c(=O)c(C(=O)O)cn1c23 [Levofloxacin] | 0.125 µg/mL (≈ 0.346 µM) | – | – | – | – | – |
| COc1c(N2C[C@@H]3CCCN[C@@H]3C2)c(F)cc2c(=O)c(C(=O)O)cn(C3CC3)c12 [Moxifloxacin] | 0.5 µg/mL (≈ 1.25 µM) | – | – | – | – | – |
| CCn1cc(C(=O)O)c(=O)c2cc(F)c(N3CCNCC3)cc21 [Norfloxacin] | 1 µg/mL (≈ 3.13 µM) | 4 µg/mL | 4 | 2 µg/mL | 2 µg/mL | – |
| CC1COc2c(N3CCN(C)CC3)c(F)cc3c(=O)c(C(=O)O)cn1c23 (stereo not shown) [Ofloxacin] | 0.25 µg/mL (≈ 0.692 µM) | – | – | – | – | – |
| CO[C@H]1/C=C/O[C@@]2(C)Oc3c(C)c(O)c4c(O)c(c(/C=N/N5CCN(C)CC5)c(O)c4c3C2=O)NC(=O)/C(C)=C\C=C\[C@H](C)[C@H](O)[C@@H](C)[C@@H](O)[C@@H](C)[C@H](OC(C)=O)[C@@H]1C [Rifampicin] | – | – | – | – | – | MIC (M. Bovis BCG Wild-type): 0.008 µg/mL (≈ 0.00972 µM) |
| [H]/N=C(/N)N[C@H]1[C@H](O)[C@@H](O)[C@H](O[C@@H]2O[C@@H](C)[C@](O)(C=O)[C@H]2O[C@@H]2O[C@@H](CO)[C@H](O)[C@@H](O)[C@@H]2NC)[C@@H](N/C(N)=N\[H])[C@@H]1O [Streptomycin] | 0.16 µg/mL (≈ 0.275 µM) | 0.64 µg/mL | 4 | 0.32 µg/mL | 0.32 µg/mL | – |
| CN(C)[C@@H]1C(O)=C(C(N)=O)C(=O)[C@@]2(O)C(O)=C3C(=O)c4c(O)cccc4[C@@](C)(O)[C@H]3C[C@@H]12 [Tetracycline] | – | – | – | – | – | MIC (M. Bovis BCG Wild-type): 31.2 µg/mL (≈ 70.3 µM) |
| CN[C@H](CC(C)C)C(=O)N[C@H]1C(=O)N[C@@H](CC(N)=O)C(=O)N[C@H]2C(=O)N[C@H]3C(=O)N[C@H](C(=O)N[C@H](C(=O)O)c4cc(O)cc(O)c4-c4cc3ccc4O)[C@H](O)c3ccc(c(Cl)c3)Oc3cc2cc(c3O[C@@H]2O[C@H](CO)[C@@H](O)[C@H](O)[C@H]2O[C@H]2C[C@](C)(N)[C@H](O)[C@H](C)O2)Oc2ccc(cc2Cl)[C@H]1O [Vancomycin] | – | 20 µg/mL | 4 | 10 µg/mL | 10 µg/mL | MIC (M. Bovis BCG Wild-type): 5 µg/mL (≈ 3.45 µM) |
| N[C@@H]1CON=C1O [cycloserine] | 4 µg/mL (≈ 39.2 µM) | 8 µg/mL | 2 | 4 µg/mL | 4 µg/mL | – |
| Nc1ccc(C(=O)O)c(O)c1 [p-aminosalicylic acid] | 2 µg/mL (≈ 13.1 µM) | >8 µg/mL | >4 | 2 µg/mL | 2 µg/mL | change of resistance / MIC in the ΔMtpA mutant, in words (M. Bovis BCG ΔMtpA): more than eight-fold |
| γ-interferon: human IFN-γ, induces nitric oxide synthase activity in macrophages | – | – | – | – | – | bacteria recovered from stimulated HMDMs [3]: drastic decrease in bacteria recovered; survival in treated macrophages compared to untreated cells [4]: no significant difference |
| B1 | – | – | – | – | – | most frequent (main) single channel conductance [5]: 4.0±0.2 nS |
| B2 | – | – | – | – | – | single channel conductance of protein purified from E. coli compared to that purified from M. smegmatis [5]: almost identical |
